Source: US20110301236A1, “HeLa-C3 Apoptosis Inducer from Garcinia paucinervis” (priority 2010, published 2011)

Legend:
Format in all cases: cell-based
[1] = test system: HeLa-C3 cells; assay: Cell morphology changes of HeLa-C3 cells during compound treatment (FIG. 2)
Experimental: Refereeing to FIG. 2, Cell morphology changes during the course of compound treatment. HeLa-C3 cells were treated with compounds of 2 at 25 μM, an anticancer drug, pacilitaxel at 500 nM (serving as a positive control), and a control without any drug for 24, 48, and 72 h. Various cell morphologies were recorded at the indicated time points.

[2] = test system: HeLa-C3 cells; assay: Apoptosis-inducing effect in HeLa-C3 cells (caspase-3 FRET biosensor, YFP/CFP emission ratio); conditions: for Apoptotic effect at 10 μM / Apoptotic effect at 25 μM / Apoptotic effect at 50 μM / Apoptotic effect at 100 μM: 72 h, HeLa-C3 cells, YFP/CFP emission ratio
Experimental: The bioassay method was described in our previous paper with some modifications. All the testing samples were dissolved in DMSO to make stock solutions. The concentration of each stock was at least 1000 times higher than the working concentration. HeLa-C3 cells, which allows detection of apoptotic cell death involving caspase activation, were cultured in minimum essential medium (MEM) containing 10% fetal bovine serum, 100 U/mL penicillin, […] streptomycin, in a 5% CO2 humidity incubator at 37° C. The sample well for apoptotic activity testing was prepared by seeding a well on a 96-well plate with 7500 HeLa-C3 cells suspended in 100 μL culture medium. After 12-16 h incubation, the old medium was removed and 100 μL freshly prepared culture medium containing the testing sample at a certain working concentration was added to both the sample well and the corresponding background well. Culture medium containing 0.1% DMSO was the negative control while 500 nM paclitaxel was the positive control. After that, the plate was read repeatedly by a Perkin-Elmer Victor reader with excitation wavelength at 440±10 nm and emission wavelength at 486±8 nm for CFP (cyan fluorescent protein) and 535±8 nm for YFP (yellow fluorescent protein) at indicated time points. The data acquisition duration was up to 72 h. The YFP/CFP emission ratio was then calculated. The background fluorescence was measured from the wells containing only medium. After subtracting the background fluorescence from the recorded signal, net YFP and CFP readings were obtained. In this paper, Y/C emission ratio is used to represent the effect of FRET, which is equal to the net YFP reading divided by the net CFP reading from the same well. If YFP/CFP emission ratio was reduced below 3, the testing sample was considered as a good apoptotic inducer at that concentration. All samples were tested in triplicate. The whole experiment was repeated for three times.
The biological activity of these new compounds was evaluated for apoptosis inducing effects using genetically engineered HeLa-C3 cells that can produce a fluorescent biosensor capable of detecting caspase-3 activation. These cells emit a green light under normal growth conditions and change to a blue light when caspase-3 is activated during apoptosis to cleave the sensor protein inside the cells. This color change allows one to use a fluorescent plate reader to directly detect the activation level of caspase-3 in HeLa-C3 cells during the course of the compound treatment in a noninvasive way. Based on our previous test results, the emission ratio of YFP (yellow fluorescent protein)/CFP (cyanfluorescent proteins) is usually between 6 and 8 in normal cells, and this ratio will decrease to a value below 3 if a compound can activate caspase-3 and kill cancer cells. Therefore, any compound that can reduce the YFP/CFP emission ratio to a value below 3 is considered positive in activating apoptosis.

[3] = test system: HeLa cells; assay: MTT assay, cell growth inhibition on HeLa cells; conditions: 72 h
Experimental: The measurement of the IC50 was conducted on the isolated compounds using MTT assay. MIT powder was dissolved in PBS at a concentration of 5 mg/mL. For MTT assay, 10 μL of MTT solution was added into each well of a 96-well plate. After 2 h incubation at 37° C., 100 μL 10% SDS solution with 0.01 M HCl was added to dissolve the purple crystals. After 24 h incubation, the optical density (OD) readings at 595 nm were measured using a plate reader. Firstly, 2,500 HeLa cells suspended in 100 μL MEM medium were seeded respectively in a 96-well plate. After 24 h incubation, fresh medium contains various concentrations of each compound were added into the 96-well plate and changed the old medium. The concentrations applied except compound 1 which was from 200 μM to 3.125 μM were ranged from 100 μM to 1.5625 μM, which was achieved by doing two-fold dilutions for 6 times. The OD values of the control group at 0 h and 72 h together with the compound treated groups at 72 h from the MTT assay were measured using a plate reader. IC50 is the concentration of a compound inhibiting 50% of the cell growth.

SMILES | Cell morphology ([1]; 500 nM (positive control), 24, 48 and 72 h) | Apoptotic effect at 10 μM [2] | Apoptotic effect at 25 μM [2] | Apoptotic effect at 50 μM [2] | Apoptotic effect at 100 μM [2] | IC50 [3] [µM] | caspase-3 activation in HeLa-C3 cells ([2]; within 72 h at 25 μM) | Cell morphology ([1]; 25 μM, 24, 48 and 72 h) | IC50 ([3]; Homo sapiens, HeLa) [µM]
CC(=O)O[C@H]1C(=O)[C@@]2(C)[C@H]([C@H](OC(=O)c3ccccc3)[C@]3(O)C[C@H](OC(=O)[C@H](O)[C@@H](NC(=O)c4ccccc4)c4ccccc4)C(C)=C1C3(C)C)[C@]1(OC(C)=O)CO[C@@H]1C[C@@H]2O [paclitaxel, reference compound] | shrinkage and detached morphology |  |  |  |  |  |  |  | 
COc1c(O)c(CC=C(C)C)cc2c1Oc1cc(O)c(CC=C(C)C)c(O)c1C(=O)O2 [Compound 1, Paucinervin A] |  | − (“−” means the YFP/CFP emission ratio of compound treated HeLa-C3 cells was above 3 at 72 h) | − (“−” means the YFP/CFP emission ratio of compound treated HeLa-C3 cells was above 3 at 72 h) | − (“−” means the YFP/CFP emission ratio of compound treated HeLa-C3 cells was above 3 at 72 h) | + (“+” means the YFP/CFP emission ratio of compound treated HeLa-C3 cells was below 3 at 72 h) | 95.6 ± 5.5 |  |  | 
COC(=O)c1c(O)cc(O)cc1Oc1c(O)c(OC)cc(CC=C(C)C)c1OC [Compound 2, Paucinervin B] |  | − (“−” means the YFP/CFP emission ratio of compound treated HeLa-C3 cells was above 3 at 72 h) | + (“+” means the YFP/CFP emission ratio of compound treated HeLa-C3 cells was below 3 at 72 h) | + (“+” means the YFP/CFP emission ratio of compound treated HeLa-C3 cells was below 3 at 72 h) | + (“+” means the YFP/CFP emission ratio of compound treated HeLa-C3 cells was below 3 at 72 h) | 9.5 ± 0.2 | could activate caspase-3 | shrinkage and detached morphology | < 10
